Laboratory results published in patent US11110082B2, “Tyrosine kinase inhibitors” (Rigel Pharmaceuticals, Inc., priority 2016, dated 2021).

The compounds below were run against T1, MerTK (Homo sapiens, UniProt Q12866) (assay: PAKT HTRF-HUVEC assay (pAkt Ser473 HTRF after anti-human MerTK-XL stimulation)). Conditions: HUVEC cells, 1 hour compound, stimulated with anti-human MerTK-XL 1 ug/mL for 10 minutes, read-out: inhibition of MerTK.
T1 construct: Seed HUVECs (10K cells/well) in EBM-2 complete media; host or cells: HUVEC (primary human umbilical vein endothelial cells)
T1 sequence (Q12866 21-999): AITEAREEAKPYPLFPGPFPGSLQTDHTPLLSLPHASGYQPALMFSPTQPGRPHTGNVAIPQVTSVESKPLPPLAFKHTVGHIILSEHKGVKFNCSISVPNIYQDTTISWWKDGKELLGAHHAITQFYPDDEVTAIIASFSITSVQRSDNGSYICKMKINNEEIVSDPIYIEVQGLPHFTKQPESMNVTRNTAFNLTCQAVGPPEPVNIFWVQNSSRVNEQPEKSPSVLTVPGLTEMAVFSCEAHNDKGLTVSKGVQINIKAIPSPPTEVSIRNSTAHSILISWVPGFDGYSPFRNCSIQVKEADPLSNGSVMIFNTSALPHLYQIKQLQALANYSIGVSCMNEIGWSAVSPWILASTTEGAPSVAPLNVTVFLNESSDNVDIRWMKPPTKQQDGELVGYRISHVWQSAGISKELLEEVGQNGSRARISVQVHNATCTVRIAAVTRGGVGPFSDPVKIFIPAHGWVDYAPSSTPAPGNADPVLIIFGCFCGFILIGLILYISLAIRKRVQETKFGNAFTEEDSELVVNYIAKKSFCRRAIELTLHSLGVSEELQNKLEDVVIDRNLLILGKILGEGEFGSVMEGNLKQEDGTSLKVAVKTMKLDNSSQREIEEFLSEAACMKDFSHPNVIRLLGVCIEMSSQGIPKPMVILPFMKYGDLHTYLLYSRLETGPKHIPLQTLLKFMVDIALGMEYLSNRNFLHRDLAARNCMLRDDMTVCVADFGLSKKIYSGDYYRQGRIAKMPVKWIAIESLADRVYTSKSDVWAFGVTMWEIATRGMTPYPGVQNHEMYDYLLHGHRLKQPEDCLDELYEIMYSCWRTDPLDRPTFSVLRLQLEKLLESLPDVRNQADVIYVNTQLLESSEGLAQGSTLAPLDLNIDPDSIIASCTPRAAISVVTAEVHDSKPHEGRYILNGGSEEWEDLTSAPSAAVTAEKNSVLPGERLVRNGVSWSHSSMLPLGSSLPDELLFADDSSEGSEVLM
Type: cell-based
Summary of the method: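 HUVECs starved 3-4 h in basal medium, preincubated with compound 1 h at 37° C, then stimulated 10 min with cross-linked anti-human MerTK antibody (final 1 ug/mL). Lysates read for pAkt (Ser473) by HTRF; EC50 from curve fitting.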

Structure (SMILES) | EC50
CCCCNc1ncc2c3ccccc3c(=O)n(C3CC4(CC(O)C4)C3)c2n1 (stereo not shown) [Compound 112, 3-(Butylamino)-5-(6-hydroxyspiro[3,3]heptan-2-yl)pyrimido[4,5-c]isoquinolin-6(5H)-one] | 0.472 µM
O=c1c2cc(CN3CCC(N4CCCC4)CC3)ccc2c2cnc(NCC3CC3)nc2n1[C@H]1CC[C@H](O)CC1 [Compound 37, trans-3-((Cyclopropylmethyl)amino)-5-(4-hydroxycyclohexyl)-8-((4-(pyrrolidin-1-yl)piperidin-1-yl)methyl)pyrimido[4,5-c]isoquinolin-6(5H)-one] | 0.0538 µM
CN1CCN(Cc2ccc3c(c2)c(=O)n([C@H]2CC[C@H](O)CC2)c2nc(NC4CCC4)ncc32)CC1 [Compound 137, trans-3-(cyclobutylamino)-5-(4-hydroxycyclohexyl)-8-((4-methylpiperazin-1-yl)methyl)pyrimido[4,5-c]isoquinolin-6(5H)-one] | 0.0196 µM
CN1CCN(Cc2ccc3c(c2)c(=O)n(C2CCC(C)(O)CC2)c2nc(NCC4CC4)ncc32)CC1 (stereo not drawn) [Compound 28, trans-3-((Cyclopropylmethyl)amino)-5-(4-hydroxy-4-methylcyclohexyl)-8-((4-methylpiperazin-1-yl)methyl)pyrimido[4,5-c]isoquinolin-6(5H)-one] | 0.0366 µM
CC(C)CNc1ncc2c3ccc(CN4CCN(C)CC4)cc3c(=O)n([C@H]3CC[C@H](O)CC3)c2n1 [Compound 130, trans-5-(4-hydroxycyclohexyl)-3-(isobutylamino)-8-((4-methylpiperazin-1-yl)methyl)pyrimido[4,5-c]isoquinolin-6(5H)-one] | 0.0512 µM
CCCCNc1ncc2c3ccccc3c(=O)n([C@H]3CC[C@@](C)(O)CC3)c2n1 [Compound 115, cis-3-(Butylamino)-5-(4-hydroxy-4-methylcyclohexyl)pyrimido [4,5-c]isoquinolin-6(5H)-one] | 0.554 µM
CN1CCN(Cc2ccc3c(c2)c(=O)n([C@H]2CC[C@H](OC(N)=O)CC2)c2nc(NCC4CC4)ncc32)CC1 [Compound 59, trans-4-(3-((Cyclopropylmethyl)amino)-8-((4-methylpiperazin-1-yl)methyl)-6-oxopyrimido[4,5-c]isoquinolin-5(6H)-yl)cyclohexyl carbamate] | 0.292 µM
CC(C)(C)N1CCN(Cc2ccc3c(c2)c(=O)n([C@H]2CC[C@H](O)CC2)c2nc(NCC4CC4)ncc32)CC1 [Compound 60, trans-8-((4-(tert-butyl)piperazin-1-yl)methyl)-3-((cyclopropylmethyl)amino)-5-(4-hydroxycyclohexyl)pyrimido [4,5-c]isoquinolin-6(5H)-one] | 0.0042 µM

The next lines start with the values.

EC50 | Structure (SMILES)
0.021 µM | O=c1c2cc(CN3CCN(c4ccncc4)CC3)ccc2c2cnc(NC3CCC3)nc2n1[C@H]1CC[C@H](O)CC1 [Compound 225, trans-3-(Cyclobutylamino)-5-(4-hydroxycyclohexyl)-8-((4-(pyridin-4-yl)piperazin-1-yl)methyl)pyrimido[4,5-c]isoquinolin-6(5H)-one]
0.0497 µM | O=c1c2cc(CN3CCN4CCC[C@H]4C3)ccc2c2cnc(NCC3CC3)nc2n1[C@H]1CC[C@H](O)CC1 [Compound 157]
0.0076 µM | CC(C)(C)N1CCN(Cc2ccc3c(c2)c(=O)n([C@H]2CC[C@H](O)CC2)c2nc(NCC4CC4)ncc32)CC1 [Compound 182]
0.0304 µM | CCC[C@H](C)Nc1ncc2c3ccc(CN4CCN(C)CC4)cc3c(=O)n([C@H]3CC[C@H](O)CC3)c2n1 [Compound 213, trans-5-(4-hydroxycyclohexyl)-8-((4-methylpiperazin-1-yl)methyl)-3-(((S)-pentan-2-yl)amino)pyrimido[4,5-c]isoquinolin-6(5H)-one]
0.147 µM | CCCCNc1ncc2c3ccc(CN4CCN(C)CC4)cc3c(=O)n([C@H]3CC[C@H](C(=O)NC4COC4)CC3)c2n1 [Compound 140, trans-4-(3-(Butylamino)-8-((4-methylpiperazin-1-yl)methyl)-6-oxopyrimido[4,5-c]isoquinolin-5(6H)-yl)-N-(oxetan-3-yl)cyclohexane-1-carboxamide]
